Legend:
Experiment in all cases: KINOMEscan
Details in all cases: read-out: Percent Control
IKK-alpha = IKK-alpha (Homo sapiens, UniProt O15111)
Procedure: (§1) The kinase engagement assay (KINOMEscan®) was performed by DiscoverX assessing binding abilities toward a set of kinases.

MAP3K2 = MAP3K2 (Homo sapiens, UniProt Q9Y2U5)
Procedure: as §1

PIK4CB = PIK4CB (Homo sapiens, UniProt Q9UBF8)
Procedure: as §1

CAMKK1 = CAMKK1 (Homo sapiens, UniProt Q8N5S9)
Procedure: as §1

SIK = SIK (Homo sapiens, UniProt P57059)
Procedure: as §1

MAP4K3 = MAP4K3 (Homo sapiens, UniProt Q8IVH8)
Procedure: as §1

ERBB3 = ERBB3 (Homo sapiens, UniProt P21860)
Procedure: as §1

[1] = target: ABL1(M351T)-phosphorylated (Homo sapiens, UniProt P00519, M351T)
Procedure: as §1

AURKA = AURKA (Homo sapiens, UniProt O14965)
Procedure: as §1

SLK = SLK (Homo sapiens, UniProt Q9H2G2)
Procedure: as §1

TGFBR1 = TGFBR1 (Homo sapiens, UniProt P36897)
Procedure: as §1

TAK1 = TAK1 (Homo sapiens, UniProt O43318)
Procedure: as §1

PIK3CA(C420R) = PIK3CA(C420R) (Homo sapiens, UniProt P42336, C420R)
Procedure: as §1

MINK = MINK (Homo sapiens, UniProt Q8N4C8)
Procedure: as §1

PRKD2 = PRKD2 (Homo sapiens, UniProt Q9BZL6)
Procedure: as §1

[2] = target: RPS6KA5(Kin.Dom.1-N-terminal) (Homo sapiens, UniProt O75582)
Procedure: as §1

LYN = LYN (Homo sapiens, UniProt P07948)
Procedure: as §1

PFTK1 = PFTK1 (Homo sapiens, UniProt O94921)
Procedure: as §1

EPHA8 = EPHA8 (Homo sapiens, UniProt P29322)
Procedure: as §1

RIOK2 = RIOK2 (Homo sapiens, UniProt Q9BVS4)
Procedure: as §1

LIMK1 = LIMK1 (Homo sapiens, UniProt P53667)
Procedure: as §1

WEE2 = WEE2 (Homo sapiens, UniProt P0C1S8)
Procedure: as §1

MET(Y1235D) = MET(Y1235D) (Homo sapiens, UniProt P08581, Y1235D)
Procedure: as §1

PAK2 = PAK2 (Homo sapiens, UniProt Q13177)
Procedure: as §1

CLK4 = CLK4 (Homo sapiens, UniProt Q9HAZ1)
Procedure: as §1

[3] = target: ABL1(H396P)-nonphosphorylated (Homo sapiens, UniProt P00519, H396P)
Procedure: as §1

SGK3 = SGK3 (Homo sapiens, UniProt Q96BR1)
Procedure: as §1

KIT(L576P) = KIT(L576P) (Homo sapiens, UniProt P10721, L576P)
Procedure: as §1

NEK11 = NEK11 (Homo sapiens, UniProt Q8NG66)
Procedure: as §1

PHKG1 = PHKG1 (Homo sapiens, UniProt Q16816)
Procedure: as §1

IGF1R = IGF1R (Homo sapiens, UniProt P08069)
Procedure: as §1

DCAMKL1 = DCAMKL1 (Homo sapiens, UniProt O15075)
Procedure: as §1

DMPK = DMPK (Homo sapiens, UniProt Q09013)
Procedure: as §1

PIP5K1C = PIP5K1C (Homo sapiens, UniProt O60331)
Procedure: as §1

[4] = target: ABL1(H396P)-phosphorylated (Homo sapiens, UniProt P00519, H396P)
Procedure: as §1

BRSK2 = BRSK2 (Homo sapiens, UniProt Q8IWQ3)
Procedure: as §1

PCTK2 = PCTK2 (Homo sapiens, UniProt Q00537)
Procedure: as §1

GSK3A = GSK3A (Homo sapiens, UniProt P49840)
Procedure: as §1

Sequence of SIK (P57059 whole entry): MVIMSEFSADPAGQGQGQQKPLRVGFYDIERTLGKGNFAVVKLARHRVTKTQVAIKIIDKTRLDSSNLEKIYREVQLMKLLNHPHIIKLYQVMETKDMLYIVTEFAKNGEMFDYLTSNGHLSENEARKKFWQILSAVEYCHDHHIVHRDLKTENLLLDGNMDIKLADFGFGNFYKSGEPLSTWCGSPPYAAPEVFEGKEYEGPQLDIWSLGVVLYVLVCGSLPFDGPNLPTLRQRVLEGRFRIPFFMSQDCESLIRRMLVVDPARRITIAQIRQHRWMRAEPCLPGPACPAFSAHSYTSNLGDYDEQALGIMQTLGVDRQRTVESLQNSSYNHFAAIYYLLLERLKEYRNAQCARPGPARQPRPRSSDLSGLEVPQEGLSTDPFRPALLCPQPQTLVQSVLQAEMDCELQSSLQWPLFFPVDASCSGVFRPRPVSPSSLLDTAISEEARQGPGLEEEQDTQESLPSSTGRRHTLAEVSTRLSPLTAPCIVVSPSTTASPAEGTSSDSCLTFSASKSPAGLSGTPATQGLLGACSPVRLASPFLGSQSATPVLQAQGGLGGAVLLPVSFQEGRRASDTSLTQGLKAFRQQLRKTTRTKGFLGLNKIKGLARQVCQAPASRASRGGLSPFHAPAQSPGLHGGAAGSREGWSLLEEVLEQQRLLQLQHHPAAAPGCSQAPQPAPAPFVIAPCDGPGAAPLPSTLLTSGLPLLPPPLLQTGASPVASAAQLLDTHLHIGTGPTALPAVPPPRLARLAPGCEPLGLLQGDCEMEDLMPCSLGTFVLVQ
Sequence of BRSK2 (Q8IWQ3 whole entry): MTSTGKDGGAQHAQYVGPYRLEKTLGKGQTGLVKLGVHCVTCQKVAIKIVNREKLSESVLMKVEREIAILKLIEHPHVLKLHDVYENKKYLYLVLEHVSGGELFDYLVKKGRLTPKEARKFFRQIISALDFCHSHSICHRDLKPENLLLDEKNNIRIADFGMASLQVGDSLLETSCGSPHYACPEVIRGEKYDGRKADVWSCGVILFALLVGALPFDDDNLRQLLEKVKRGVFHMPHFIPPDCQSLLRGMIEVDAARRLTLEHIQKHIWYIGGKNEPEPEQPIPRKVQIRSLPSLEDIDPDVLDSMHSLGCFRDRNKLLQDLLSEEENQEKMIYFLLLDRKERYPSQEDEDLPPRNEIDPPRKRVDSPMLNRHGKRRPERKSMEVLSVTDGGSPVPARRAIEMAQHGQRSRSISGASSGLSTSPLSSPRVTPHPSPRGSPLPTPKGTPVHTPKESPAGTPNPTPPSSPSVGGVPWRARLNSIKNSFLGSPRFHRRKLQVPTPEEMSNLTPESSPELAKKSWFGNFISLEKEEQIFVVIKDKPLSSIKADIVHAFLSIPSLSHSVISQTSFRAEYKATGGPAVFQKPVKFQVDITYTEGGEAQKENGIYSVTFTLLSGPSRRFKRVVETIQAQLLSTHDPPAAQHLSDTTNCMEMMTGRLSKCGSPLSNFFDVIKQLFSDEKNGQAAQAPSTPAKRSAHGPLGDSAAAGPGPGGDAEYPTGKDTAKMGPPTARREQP
Sequence of KIT(L576P) (P10721 26-976 L576P): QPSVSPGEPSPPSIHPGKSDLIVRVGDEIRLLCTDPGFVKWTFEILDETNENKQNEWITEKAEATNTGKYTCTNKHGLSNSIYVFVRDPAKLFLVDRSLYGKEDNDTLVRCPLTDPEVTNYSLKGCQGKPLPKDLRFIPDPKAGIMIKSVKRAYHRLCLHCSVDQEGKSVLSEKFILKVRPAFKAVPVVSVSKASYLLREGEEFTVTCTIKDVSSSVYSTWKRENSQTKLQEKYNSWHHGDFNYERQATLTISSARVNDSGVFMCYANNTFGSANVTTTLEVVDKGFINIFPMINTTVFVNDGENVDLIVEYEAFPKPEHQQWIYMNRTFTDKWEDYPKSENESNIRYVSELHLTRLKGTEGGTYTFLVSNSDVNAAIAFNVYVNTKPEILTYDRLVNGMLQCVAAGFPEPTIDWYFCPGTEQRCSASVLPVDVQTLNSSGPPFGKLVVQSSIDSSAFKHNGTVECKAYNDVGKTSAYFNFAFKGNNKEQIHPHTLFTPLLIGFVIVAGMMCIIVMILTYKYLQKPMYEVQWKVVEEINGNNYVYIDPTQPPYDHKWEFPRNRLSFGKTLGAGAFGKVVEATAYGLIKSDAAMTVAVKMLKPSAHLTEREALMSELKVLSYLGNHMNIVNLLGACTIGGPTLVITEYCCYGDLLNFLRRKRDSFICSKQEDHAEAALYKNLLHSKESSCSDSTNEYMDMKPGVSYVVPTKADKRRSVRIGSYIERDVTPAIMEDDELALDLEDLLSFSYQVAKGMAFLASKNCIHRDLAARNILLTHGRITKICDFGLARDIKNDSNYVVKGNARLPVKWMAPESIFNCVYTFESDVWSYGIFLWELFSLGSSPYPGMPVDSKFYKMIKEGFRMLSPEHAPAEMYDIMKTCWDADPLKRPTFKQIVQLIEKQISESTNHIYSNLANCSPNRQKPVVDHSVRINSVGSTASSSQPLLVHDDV
Sequence of IGF1R (P08069 31-1367): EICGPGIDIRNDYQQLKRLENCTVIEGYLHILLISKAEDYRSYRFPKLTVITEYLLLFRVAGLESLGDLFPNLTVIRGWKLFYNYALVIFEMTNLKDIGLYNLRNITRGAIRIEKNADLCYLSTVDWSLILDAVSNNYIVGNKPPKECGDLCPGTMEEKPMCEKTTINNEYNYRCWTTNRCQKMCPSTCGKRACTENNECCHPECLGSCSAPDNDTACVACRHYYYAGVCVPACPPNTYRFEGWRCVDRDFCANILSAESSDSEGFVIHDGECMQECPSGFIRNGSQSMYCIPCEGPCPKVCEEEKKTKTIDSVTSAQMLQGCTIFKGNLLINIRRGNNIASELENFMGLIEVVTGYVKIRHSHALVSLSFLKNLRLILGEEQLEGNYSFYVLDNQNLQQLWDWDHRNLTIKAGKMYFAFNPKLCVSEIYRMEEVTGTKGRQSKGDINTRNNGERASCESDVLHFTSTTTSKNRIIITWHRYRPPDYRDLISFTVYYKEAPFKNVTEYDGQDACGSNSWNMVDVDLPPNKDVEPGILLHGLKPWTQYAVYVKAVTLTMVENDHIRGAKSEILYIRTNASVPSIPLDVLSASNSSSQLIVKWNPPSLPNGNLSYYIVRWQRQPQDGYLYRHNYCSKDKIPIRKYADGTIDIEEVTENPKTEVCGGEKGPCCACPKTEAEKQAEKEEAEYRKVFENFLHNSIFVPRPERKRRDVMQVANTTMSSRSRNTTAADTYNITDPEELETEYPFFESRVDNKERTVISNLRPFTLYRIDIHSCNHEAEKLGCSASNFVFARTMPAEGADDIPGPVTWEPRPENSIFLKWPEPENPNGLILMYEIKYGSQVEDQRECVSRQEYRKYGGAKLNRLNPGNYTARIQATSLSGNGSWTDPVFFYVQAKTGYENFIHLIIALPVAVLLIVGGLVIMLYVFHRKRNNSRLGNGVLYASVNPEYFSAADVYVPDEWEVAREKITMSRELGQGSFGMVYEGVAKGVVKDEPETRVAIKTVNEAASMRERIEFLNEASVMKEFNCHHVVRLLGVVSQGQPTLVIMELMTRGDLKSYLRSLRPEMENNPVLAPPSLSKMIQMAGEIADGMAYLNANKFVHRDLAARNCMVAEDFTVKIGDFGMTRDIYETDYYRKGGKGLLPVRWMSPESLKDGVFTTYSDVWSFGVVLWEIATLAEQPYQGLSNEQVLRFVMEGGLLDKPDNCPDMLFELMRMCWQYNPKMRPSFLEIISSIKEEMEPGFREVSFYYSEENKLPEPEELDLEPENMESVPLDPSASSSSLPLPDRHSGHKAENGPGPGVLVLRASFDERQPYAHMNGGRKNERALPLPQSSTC
Sequence of AURKA (O14965 whole entry): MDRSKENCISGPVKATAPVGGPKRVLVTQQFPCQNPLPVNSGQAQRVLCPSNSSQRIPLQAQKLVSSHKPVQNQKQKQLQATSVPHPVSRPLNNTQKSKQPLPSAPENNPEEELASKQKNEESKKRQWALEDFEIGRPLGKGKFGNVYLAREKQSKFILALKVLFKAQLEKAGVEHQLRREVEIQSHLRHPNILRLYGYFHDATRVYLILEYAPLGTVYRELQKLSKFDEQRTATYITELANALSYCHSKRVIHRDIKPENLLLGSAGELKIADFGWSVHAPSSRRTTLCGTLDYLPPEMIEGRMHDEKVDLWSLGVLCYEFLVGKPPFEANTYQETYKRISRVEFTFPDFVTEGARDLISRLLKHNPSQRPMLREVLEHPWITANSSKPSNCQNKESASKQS
Sequence of PCTK2 (Q00537 whole entry): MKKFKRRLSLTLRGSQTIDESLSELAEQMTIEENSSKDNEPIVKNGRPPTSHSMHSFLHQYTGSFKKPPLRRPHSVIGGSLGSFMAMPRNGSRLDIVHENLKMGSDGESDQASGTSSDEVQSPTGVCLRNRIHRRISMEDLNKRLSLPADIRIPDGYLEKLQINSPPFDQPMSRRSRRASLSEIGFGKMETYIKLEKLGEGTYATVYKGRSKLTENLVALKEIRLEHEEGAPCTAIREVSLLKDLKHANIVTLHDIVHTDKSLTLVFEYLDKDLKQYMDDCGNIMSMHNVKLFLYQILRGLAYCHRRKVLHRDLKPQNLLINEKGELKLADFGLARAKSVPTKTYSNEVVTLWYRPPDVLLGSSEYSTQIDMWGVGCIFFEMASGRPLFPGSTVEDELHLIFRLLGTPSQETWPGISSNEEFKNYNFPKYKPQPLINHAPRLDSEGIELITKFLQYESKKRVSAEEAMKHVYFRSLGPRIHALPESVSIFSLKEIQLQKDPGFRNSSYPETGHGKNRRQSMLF
Sequence of RPS6KA5(Kin.Dom.1-N-terminal) (O75582 49-318 limits assumed): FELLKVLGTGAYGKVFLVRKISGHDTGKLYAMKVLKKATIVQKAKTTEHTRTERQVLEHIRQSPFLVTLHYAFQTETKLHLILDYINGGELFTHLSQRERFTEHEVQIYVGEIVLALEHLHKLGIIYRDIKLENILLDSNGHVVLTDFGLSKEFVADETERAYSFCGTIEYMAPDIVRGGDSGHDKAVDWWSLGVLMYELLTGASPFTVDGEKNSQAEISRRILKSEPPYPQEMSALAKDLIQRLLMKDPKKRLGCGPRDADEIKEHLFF

Compound: O=C1CCC(N2C(=O)c3cccc(NCCCCCCCCNC(=O)N4CC[C@H](NC5=Nc6cc(F)ccc6N(CC(F)F)c6ccc(Cl)cc65)C4)c3C2=O)C(=O)N1 (stereo partly drawn) [BJG-05-039, (3S)-3-((2-Chloro-5-(2,2-difluoroethyl)-8-fluoro-5H-dibenzo[b,e][1,4]diazepin-11-yl)amino)-N-(8-((2-(2,6-dioxopiperidin-3-yl)-1,3-dioxoisoindolin-4-yl)amino)octyl)pyrrolidine-1-carboxamide]
- remaining binding at 10 µM (IKK-alpha): 91%
- remaining binding at 10 µM (MAP3K2): 76%
- remaining binding at 10 µM (PIK4CB): 78%
- remaining binding at 10 µM (CAMKK1): 52%
- remaining binding at 10 µM (SIK): 95%
- remaining binding at 10 µM (MAP4K3): 72%
- remaining binding at 10 µM (ERBB3): 59%
- remaining binding at 10 µM [1]: 100%
- remaining binding at 10 µM (AURKA): 100%
- remaining binding at 10 µM (SLK): 91%
- remaining binding at 10 µM (TGFBR1): 100%
- remaining binding at 10 µM (TAK1): 100%
- remaining binding at 10 µM (PIK3CA(C420R)): 100%
- remaining binding at 10 µM (MINK): 100%
- remaining binding at 10 µM (PRKD2): 53%
- remaining binding at 10 µM [2]: 94%
- remaining binding at 10 µM (LYN): 79%
- remaining binding at 10 µM (PFTK1): 88%
- remaining binding at 10 µM (EPHA8): 84%
- remaining binding at 10 µM (RIOK2): 99%
- remaining binding at 10 µM (LIMK1): 94%
- remaining binding at 10 µM (WEE2): 78%
- remaining binding at 10 µM (MET(Y1235D)): 63%
- remaining binding at 10 µM (PAK2): 87%
- remaining binding at 10 µM (CLK4): 100%
- remaining binding at 10 µM [3]: 98%
- remaining binding at 10 µM (SGK3): 88%
- remaining binding at 10 µM (KIT(L576P)): 84%
- remaining binding at 10 µM (NEK11): 100%
- remaining binding at 10 µM (PHKG1): 65%
- remaining binding at 10 µM (IGF1R): 70%
- remaining binding at 10 µM (DCAMKL1): 77%
- remaining binding at 10 µM (DMPK): 52%
- remaining binding at 10 µM (PIP5K1C): 96%
- remaining binding at 10 µM [4]: 100%
- remaining binding at 10 µM (BRSK2): 99%
- remaining binding at 10 µM (PCTK2): 58%
- remaining binding at 10 µM (GSK3A): 50%

From US20250312462A1, “PAK1 DEGRADERS AND METHODS OF USE THEREOF” (INSTITUTE FOR CANCER RESEARCH D/B/A THE RESEARCH INSTITUTE …, priority 2022, published 2025)
